Data taken from PMC11077050 (2024).

Legend:
[1] = system: RNA 2 (RNA, riboswitch) CCGGCAUAGCUUGUCCUUUAAUGGUCCUAUGUCGAAAAUG; experiment: native ESI MS with CAD top-down MS (FT-ICR); conditions: NH4+ 50 mM (ammonium bicarbonate), no divalent ions; 9:1 H2O/CH3OH, 0.25 mM piperazine, pH ~7.5; 1 μM RNA, 1-5 μM neomycin B; fourth molecule unspecific
[2] = system: 15N-labeled RNA 2 (RNA, riboswitch) CCGGCAUAGCUUGUCCUUUAAUGGUCCUAUGUCGAAAAUG; experiment: 1H NMR imino proton titration; conditions: Na+ (25 mM NaCl, 15 mM sodium phosphate); pH 6.5, 15 °C, 10% D2O, 280 μM RNA, 0-4.5 equivalents; slow exchange in 0-1 equivalent range
[3] = system: RNA 3 (RNA, riboswitch) CCGUCAUAGCUUGUCCUUUAAUGGUCCUAUGACGAAAAUG; experiment: native ESI MS with CAD top-down MS (FT-ICR); conditions: NH4+ 50 mM (ammonium bicarbonate), no divalent ions; 9:1 H2O/CH3OH, 0.25 mM piperazine, pH ~7.5; 1 μM RNA, 1-5 μM neomycin B
[4] = system: RNA 4 (RNA, riboswitch) CCCUGAUAGCUUGUCCUUUAAUGGUCCUAUCUGGAAAAUG; experiment: native ESI MS with CAD top-down MS (FT-ICR); conditions: NH4+ 50 mM (ammonium bicarbonate), no divalent ions; 9:1 H2O/CH3OH, 0.25 mM piperazine, pH ~7.5; 1 μM RNA, 1-5 μM neomycin B
[5] = system: RNA 5 (RNA, riboswitch) CCGGCAUAGCUUCUCCUUUAAUGGUCCUAUGUCGAAAAUG; experiment: native ESI MS with CAD top-down MS (Orbitrap); conditions: motif C occupancy reduced to ~60% in 1:3 complexes

binding [1]: yes
binding [2]: yes
binding [3]: yes
binding [4]: yes
binding [5]: yes
SMILES: NC[C@@H]1O[C@H](O[C@H]2[C@@H](O)[C@H](O[C@@H]3[C@@H](O)[C@H](N)C[C@H](N)[C@H]3O[C@H]3O[C@H](CN)[C@@H](O)[C@H](O)[C@H]3N)O[C@@H]2CO)[C@H](N)[C@@H](O)[C@@H]1O
